# Entries after “also recorded” stand apart in the source; their conditions may differ.
# Test system: microspore-derived embryos from 10 proprietary canola lines
# Assay: Culture-free maturation and regeneration of microspore-derived embryos in soil, canola
# Format: in vivo
# Conditions: 5 mg/L added to MDE Maturation Medium, about 1 to about 24 hours before transfer to soil
# Protocol: The optimal time to dilute the microspore-derived embryos to a concentration of about 200 to about 400 embryos per plate containing 15 mL medium is about 15 days to about 20 days after the beginning microspore culture initiation (days after culture) (DAC). At this stage, the embryos are green, individually distinguishable with the naked eye, and the majority are in the torpedo stage of development. During the dilution step the embryogenesis induction medium (NLN13) is replaced with MDE Maturation Medium. The microspore-derived embryos were diluted by transferring about 200 to about 400 embryos to a new plate containing 15 mL of MDE Maturation Medium. If the original plates have a starting concentration of about 200 embryos per plate or less, then the media of the original plate is replaced with MDE Maturation Medium without embryo dilution. Following dilution and/or media replacement, plates were returned to 100 μmol fluorescent light for a 16 hour photoperiod, 25° C. day and night with an orbital shaker set to 60 RPM, and cultured to about 28 to about 30 DAC to reach a matured cotyledon stage before transferring to a solid regeneration medium. […] Regeneration rate was measured after 28 days of incubation. Microspore-derived embryos from 10 proprietary canola lines were analyzed in a series of protocols to identify optimized conditions for culture-free maturation and regeneration. […]
structure (smiles),measurement,value
"O=C(O)CCCc1c[nH]c2ccccc12 [IBA, indole-3-butyric acid]","effect on rooting, plantlet survival and establishment in soil",accelerates rooting and increases plantlet survival and establishment in soil; also recorded: improves rooting
